The source made the active and inactive calls.
Legend:
Format in all cases: cell-based
[1] = target: T1, Protein cereblon/Histone-lysine N-methyltransferase EZH2 (Homo sapiens) (UniProt Q15910+Q96SW2); test: Protac activity at CRBN E3 ligase/EZH2 in human 22Rv1 cells assessed as inhibition of H3K27me3 at 0.3 uM incubated for 48 hrs by Western blot analysis
[2] = target: T1, Protein cereblon/Histone-lysine N-methyltransferase EZH2 (Homo sapiens); test: Protac activity at CRBN E3 ligase/EZH2 in human 22Rv1 cells assessed as inhibition of H3K27me3 at 1 uM incubated for 48 hrs by Western blot analysis
[3] = target: T1, Protein cereblon/Histone-lysine N-methyltransferase EZH2 (Homo sapiens); test: Protac activity at CRBN E3 ligase/EZH2 in human 22Rv1 cells assessed as degradation of EZH2 at 1 uM incubated for 48 hrs by Western blot analysis
[4] = target: T1, Protein cereblon/Histone-lysine N-methyltransferase EZH2 (Homo sapiens); test: Protac activity at CRBN E3 ligase/EZH2 in human 22Rv1 cells assessed as degradation of EZH2 at 0.3 uM incubated for 48 hrs by Western blot analysis
[5] = target: T1, Protein cereblon/Histone-lysine N-methyltransferase EZH2 (Homo sapiens); test: Protac activity at CRBN E3 ligase/EZH2 in human 22Rv1 cells assessed as degradation of EZH2 at 3 uM incubated for 48 hrs by Western blot analysis
[6] = target: T1, Protein cereblon/Histone-lysine N-methyltransferase EZH2 (Homo sapiens); test: Protac activity at CRBN E3 ligase/EZH2 in human 22Rv1 cells assessed as inhibition of H3K27me3 at 3 uM incubated for 48 hrs by Western blot analysis
[7] = target: T2, von Hippel-Lindau disease tumor suppressor/Histone-lysine N-methyltransferase EZH2 (Homo sapiens) (UniProt Q15910+P40337); test: Protac activity at VHL/EZH2 in human 22Rv1 cells assessed as reduction in H3K27me3 level at 1 uM incubated for 48 hrs by Western blot analysis
[8] = target: T2, von Hippel-Lindau disease tumor suppressor/Histone-lysine N-methyltransferase EZH2 (Homo sapiens); test: Protac activity at VHL/EZH2 in human 22Rv1 cells assessed as reduction in EZH2 level at 1 uM incubated for 48 hrs by Western blot analysis

Measured: Activity

T2 sequence (P40337 whole entry, looked up): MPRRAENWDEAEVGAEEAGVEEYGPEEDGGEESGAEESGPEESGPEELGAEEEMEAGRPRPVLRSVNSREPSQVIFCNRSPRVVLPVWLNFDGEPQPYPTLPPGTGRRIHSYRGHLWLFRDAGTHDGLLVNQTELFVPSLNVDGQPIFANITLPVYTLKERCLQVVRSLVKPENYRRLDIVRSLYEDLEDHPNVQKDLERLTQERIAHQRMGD
T2 sequence (Q15910 whole entry, looked up): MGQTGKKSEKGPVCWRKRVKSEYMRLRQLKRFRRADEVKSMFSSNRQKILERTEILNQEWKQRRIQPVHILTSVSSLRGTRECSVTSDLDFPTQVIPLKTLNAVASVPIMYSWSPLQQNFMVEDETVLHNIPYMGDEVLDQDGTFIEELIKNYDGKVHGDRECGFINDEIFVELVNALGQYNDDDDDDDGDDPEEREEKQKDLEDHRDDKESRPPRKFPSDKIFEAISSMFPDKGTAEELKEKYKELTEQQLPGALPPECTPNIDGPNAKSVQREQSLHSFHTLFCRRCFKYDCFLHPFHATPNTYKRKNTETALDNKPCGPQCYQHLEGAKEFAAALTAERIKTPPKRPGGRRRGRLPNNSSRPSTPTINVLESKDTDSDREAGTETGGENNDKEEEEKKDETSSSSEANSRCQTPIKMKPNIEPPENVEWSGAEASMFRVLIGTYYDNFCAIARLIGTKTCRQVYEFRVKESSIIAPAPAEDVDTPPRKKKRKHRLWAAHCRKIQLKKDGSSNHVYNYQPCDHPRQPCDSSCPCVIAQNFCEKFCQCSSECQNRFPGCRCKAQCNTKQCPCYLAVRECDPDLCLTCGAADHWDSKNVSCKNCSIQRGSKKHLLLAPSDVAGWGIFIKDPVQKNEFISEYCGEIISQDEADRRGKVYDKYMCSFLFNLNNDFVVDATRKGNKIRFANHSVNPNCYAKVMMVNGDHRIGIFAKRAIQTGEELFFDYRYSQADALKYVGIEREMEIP
T1 sequence (Q15910 whole entry, looked up): as above
T1 sequence (Q96SW2 whole entry, looked up): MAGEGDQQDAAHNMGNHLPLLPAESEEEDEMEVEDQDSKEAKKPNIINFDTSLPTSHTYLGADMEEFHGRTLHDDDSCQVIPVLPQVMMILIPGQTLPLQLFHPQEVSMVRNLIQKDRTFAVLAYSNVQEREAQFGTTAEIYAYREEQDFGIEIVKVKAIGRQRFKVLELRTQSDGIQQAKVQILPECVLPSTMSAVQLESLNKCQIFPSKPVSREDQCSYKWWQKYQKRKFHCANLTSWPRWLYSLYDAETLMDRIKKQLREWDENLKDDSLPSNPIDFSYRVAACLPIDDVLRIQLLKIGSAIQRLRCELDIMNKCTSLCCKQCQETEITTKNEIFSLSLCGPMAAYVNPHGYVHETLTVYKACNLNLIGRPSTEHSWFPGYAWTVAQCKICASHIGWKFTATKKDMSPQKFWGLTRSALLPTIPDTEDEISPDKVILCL

CCN(c1cc(-c2ccc(C(=O)NCCOCCOCCOCCOc3cccc4c3C(=O)N(C3CCC(=O)NC3=O)C4=O)cc2)cc(C(=O)NCc2c(C)cc(C)[nH]c2=O)c1C)C1CCOCC1 (configuration not stated)
inactive: [1] | [3] | [4] | [5]
active: [2] | [6]

CCN(c1cc(-c2ccc(C(=O)NCCCCNc3cccc4c3C(=O)N(C3CCC(=O)NC3=O)C4=O)cc2)cc(C(=O)NCc2c(C)cc(C)[nH]c2=O)c1C)C1CCOCC1 (configuration not stated)
active: [1] | [2] | [6]
inactive: [3] | [4] | [5]

CCN(c1cc(-c2ccc(C(=O)NCCOCCOCC(=O)N[C@H](C(=O)N3C[C@H](O)C[C@H]3C(=O)NCc3ccc(-c4scnc4C)cc3)C(C)(C)C)cc2)cc(C(=O)NCc2c(C)cc(C)[nH]c2=O)c1C)C1CCOCC1
active: [7]

CCN(c1cc(-c2ccc(C(=O)NCCOCCOCCOc3cccc4c3C(=O)N(C3CCC(=O)NC3=O)C4=O)cc2)cc(C(=O)NCc2c(C)cc(C)[nH]c2=O)c1C)C1CCOCC1 (configuration not stated)
not listed: [7] | [8]
inactive: all other assays above

CCN(c1cc(-c2ccc(C(=O)NCCOCCOCCOCC(=O)N[C@H](C(=O)N3C[C@H](O)C[C@H]3C(=O)NCc3ccc(-c4scnc4C)cc3)C(C)(C)C)cc2)cc(C(=O)NCc2c(C)cc(C)[nH]c2=O)c1C)C1CCOCC1
inactive: [8] | [7]

CCN(c1cc(-c2ccc(C(=O)NCCCCCCNC(=O)COc3cccc4c3C(=O)N(C3CCC(=O)NC3=O)C4=O)cc2)cc(C(=O)NCc2c(C)cc(C)[nH]c2=O)c1C)C1CCOCC1 (configuration not stated)
inactive: [3] | [4] | [5]
active: [1] | [2] | [6]

Source: ChEMBL document CHEMBL5042478, “Design, Synthesis, and Evaluation of VHL-Based EZH2 Degraders to Enhance Therapeutic Activity against Lymphoma” (J Med Chem, 2021)
